Laboratory results as given in paper PMC10541198, “Specific quinone reductase 2 inhibitors reduce metabolic burden and reverse Alzheimer’s disease phenotype in mice” (The Journal of Clinical Investigation, 2023).
Where “and” joins values, the source holds several entries; their conditions need not be identical. Identical values can stand only once.

System: p-tau
Experiment: IHC of p-tau (AT8) in 5xFAD brain sections
Format: in vivo, mouse
Conditions: for p-tau normalized volume (individual mice): CA1, 5xFAD 1 month; for Figure 9C, IHC signal / Sup. Fig. 6-1C, IHC signal: individual animals; for p-Tau vs vehicle: cortex, 5xFAD 1 month
Text: Following the behavioral experiments, we assessed brain pathologies associated with AD present in the 5xFAD mice ([37]). Therefore, 5 days following the last behavioral experiment, and 1 month after the start of YB-537 consumption, mice were sacrificed, and coronal brain sections were used for IHC. Since the CA1 region of the hippocampus is affected during AD pathogenesis ([37]), and this brain region is involved in the behavioral paradigms used here, we acquired images of CA1. This was done with an Olympus IX83 confocal microscope using the same settings, antibodies, and exposures in all mice. Images were analyzed using Imaris (Bitplane; see methods). For each mouse, 3 coronal sections were used per antibody. In each section, the same region of CA1 was acquired, using the same image frame size and resolution, at all possible depths of the section — using a Z-stack of the whole section — to allow measurement of the fluorescent antibody marker volume, which was normalized to the brain volume from which it was taken. First, we measured oxidative stress, as indicated by 4-HNE ([38]) (Abcam, ab48506).
Perfused and fixed brain slices were blocked with 10% normal donkey serum (DNS) and 0.2% triton (Sigma-Aldrich) in PBS. Antibodies, including 4-HNE (AbCam, ab48506), Iba1 (AbCam, ab5076), AT-8 (Thermo, MN1020), Amyloid β (AbCam, ab201060), diluted in PBS with 10% DNS, were incubated at 4°C overnight. Secondary antibodies including donkey-anti-goat Alexa Fluor 568 (AbCam, ab175704), donkey-anti-mouse Cy 5 (Jackson Immuno Research, 715-175-151), and donkey-anti-rabbit DyLight 488 (AbCam, ab98488) all diluted 1:500 in PBS with 1% BSA, were applied to the slices at RT for 2 hours the next day. Slices were mounted onto glass slides using DAPI containing Vectashield (H-1200). Images were taken using a confocal microscope (Olympus IX83). Three slices were used per mouse per antibody. Tiling images of the dorsal CA1 and cortex (Bregma: –1.58mm to –2.30mm) were taken using ×20 objective, acquiring a Z-stack of the whole section. Analysis of the images was done blind by an experimenter unaware of the experimental conditions or details, using Imaris (Bitplane) software. A surface reconstruction module was used to extract the data as volumes of the used markers (4-HNE, phospho-tau, amyloid β, GFAP, and Iba1). Marker volume and intensity were normalized to the corresponding brain volume. The normalized value was averaged for each triplicate and presented here. […]
Brains were then briefly removed and placed in chilled, 4% PFA for 48 h, f oll owe d by immersion in 30% sucrose in 0.1 M PBS for a furt her 48 h. Bra i ns wer e t h e n stored at -80°C, until t he y were sliced into 40µm coronal sections usinga Lei ca CM 1950cryostat. Sli ces were then washed x3 in PBS and bl oc ke d for 1 h at RT using 10% normal donkey serum (DNS) and 0.2% triton (Sigma-Aldrich) in PBS. Antibodies, including 4- HNE (1:500, AbCam, ab48506), Iba1 (1:2,000, AbCam, ab5076), GFAP (Abcam, ab53554), phospho- tau (1:1,000, Thermo, MN1020) and amyloid β (1:1,000, AbCam, ab201060) diluted in PBS with 10% DNS were incubated at 4°C overnight. The next day, the slices were washed x3 times in PBS, and secondary antibodies including donkey anti goat A l e x a Fluor 568 (AbCam, ab175704), donkey anti-mouse Cy 5 (Jackson Immuno Research, 715- 175- 151) and donkey anti-rabbit DyLight 488 (AbCam, ab98488) all diluted 1:500 in PBS with 1% BSA, were applied to the slices at RT for 2 h. Following the incubation, the slices were washed x3 times in PBS, mounted onto gl ass slides, were uniformly covered in DAPI containing Vectashield (H-1200) and coverslips were a dde d. […]

Cc1ccc(-c2cn3cccc(C)c3n2)cc1S(=O)(=O)N1CCNCC1 [YB-537]
p-tau normalized volume (individual mice) (Females): 0.0465 and 0.0384 and 0.0492 and 0.0132 and 0.0255 and 0.0111 and 0.0090 | p-tau normalized volume (individual mice) (Males): 0.0610 and 0.0859 and 0.0662 and 0.0488 and 0.0445 and 0.0550 and 0.1044 and 0.0487 and 0.0628 | p-tau normalized volume (individual mice) (Males + Females): 0.0465 and 0.0384 and 0.0492 and 0.0550 and 0.1044 and 0.0487 and 0.0628 and 0.0610 and 0.0859 and 0.0662 and 0.0488 and 0.0445 and 0.0132 and 0.0255 and 0.0111 and 0.0090 | Figure 9C, IHC signal (Cortex): 0.0130 and 0.0160 and 0.0210 and 0.0219 and 0.0108 and 0.0168 and 0.0118 and 0.0284 and 0.0147 | Sup. Fig. 6-1C, IHC signal (Females): 0.0087 and 0.0158 and 0.0323 and 0.0264 and 0.0119 and 0.0169 and 0.0098 | Figure 9C, IHC signal (Hippocampus): 0.0315 and 0.0219 and 0.0395 and 0.0356 and 0.0234 and 0.0118 and 0.0425 and 0.0378 and 0.0364 | Sup. Fig. 6-1C, IHC signal (Males): 0.0177 and 0.0343 and 0.0259 and 0.0422 and 0.0294 and 0.0273 and 0.0409 and 0.0167 and 0.0342 | p-Tau vs vehicle (females): unchanged | p-Tau vs vehicle (males): unchanged | p-Tau vs vehicle (total population): unchanged
